Data published in patent publication US20070128217A1 (priority 2003, published 2007).

How the values were obtained:
[1] = test system: antibodies in sera from SARS patients (sera 1a, 1b, 2, 6, 37, 62, London, SARS-yellow, SARS-green); format: binding, human; parameters: Binding of serum 6 to linear peptides of protein X1 of SARS-CoV Urbani / Binding of serum 37 to linear peptides of protein X1 of SARS-CoV Urbani / Binding of serum 6 to looped/cyclic peptide (PEPSCAN-ELISA) / Binding of serum 37 to looped/cyclic peptide (PEPSCAN-ELISA) / Binding of serum 37 to looped/cyclic peptides of protein X1 of SARS-CoV Urbani / Binding of serum 6 to linear peptides of protein X2 / Binding of serum 37 to linear peptides of protein X2 / Binding of serum 37 to looped/cyclic peptides of protein X2 of SARS-CoV Urbani / Binding of serum 6 to linear peptides of protein M of SARS-CoV Urbani / Binding of serum 37 to linear peptides of protein M of SARS-CoV Urbani / Binding of serum 6 to looped/cyclic peptides of protein M of SARS-CoV Urbani / Binding of serum 37 to looped/cyclic peptides of protein M of SARS-CoV Urbani / Binding of serum 6 to linear peptides of protein X3 of SARS-CoV Urbani / Binding of serum 37 to linear peptides of protein X3 of SARS-CoV Urbani / Binding of serum 37 to looped/cyclic peptides of protein X3 of SARS-CoV Urbani / Binding of serum 6 to linear peptides of protein X4 of SARS-CoV Urbani / Binding of serum 37 to linear peptides of protein X4 of SARS-CoV Urbani / Binding of serum 37 to looped/cyclic peptides of protein X4 of SARS-CoV Urbani / Binding of serum 6 to linear peptides of protein X5 of SARS-CoV Urbani / Binding of serum 37 to linear peptides of protein X5 of SARS-CoV Urbani / Binding of serum 37 to looped/cyclic peptides of protein X5 of SARS-CoV Urbani / Binding of serum 6 to linear peptides of protein N of SARS-CoV Urbani / Binding of serum 37 to linear peptides of protein N of SARS-CoV Urbani / Binding of serum 6 to linear peptide (PEPSCAN-ELISA) / Binding of serum 1a to looped/cyclic peptides of protein N of SARS-CoV Urbani / Binding of serum 1b to looped/cyclic peptides of protein N of SARS-CoV Urbani / Binding of serum 2 to looped/cyclic peptides of protein N of SARS-CoV Urbani / Binding of serum 6 to looped/cyclic peptides of protein N of SARS-CoV Urbani / Binding of serum 37 to looped/cyclic peptides of protein N of SARS-CoV Urbani / Binding of serum 62 to looped/cyclic peptides of protein N of SARS-CoV Urbani / Binding of serum London to looped/cyclic peptides of protein N of SARS-CoV Urbani / Binding of serum SARS-green to looped/cyclic peptides of protein N of SARS-CoV Urbani: unit not given here
[2] = test system: control sera (pooled serum of ten healthy LUMC hospital workers; commercial negative donor pooled serum from the Dutch bloodbank); format: binding, human; parameters: Binding of Control serum LUMC to linear peptides / Binding of Control serum Blood-bank to linear peptides / Binding of Control serum LUMC to looped peptides / Binding of Control Serum Blood-Bank to Looped peptides / Binding of Control serum LUMC to linear peptides of the protein M of SARS-CoV Urbani / Binding of Control serum Blood-bank to linear peptides of the protein M of SARS-CoV Urbani / Binding of Control serum LUMC to looped peptides of the protein M of SARS-CoV Urbani / Binding of Control Serum Blood-Bank to Looped peptides of the protein M of SARS-CoV Urbani: unit not given here
[3] = test system: rabbit serum obtained by immunizing a rabbit with the SARS-CoV strain Frankfurt 1; format: binding; parameters: Binding of a rabbit serum to linear peptides / Binding of a rabbit serum to looped peptides / Rabbit serum linear peptides / Rabbit serum looped peptides / Binding of a rabbit serum to linear peptides of protein N of SARS-CoV Urbani (Rabbit serum linear peptides) / Binding of a rabbit serum to looped/cyclic peptides of protein N of SARS-CoV Urbani (Rabbit serum looped peptides): unit not given here

Sequence | Binding of serum 1a to linear peptides of protein X1 of SARS-CoV Urbani [1] | Binding of serum 1a to looped/cyclic peptides of protein X1 of SARS-CoV Urbani [1] | Binding of serum 1b to linear peptides of protein X1 of SARS-CoV Urbani [1] | Binding of serum 1b to looped/cyclic peptides of protein X1 of SARS-CoV Urbani [1] | Binding of serum 2 to linear peptides of protein X1 of SARS-CoV Urbani [1] | Binding of serum 2 to looped/cyclic peptides of protein X1 of SARS-CoV Urbani [1] | Binding of serum 6 to linear peptides of protein X1 of SARS-CoV Urbani [1] | Binding of serum 6 to looped/cyclic peptides of protein X1 of SARS-CoV Urbani [1] | Binding of serum 37 to linear peptides of protein X1 of SARS-CoV Urbani [1] | Binding of serum 37 to looped/cyclic peptides of protein X1 of SARS-CoV Urbani [1] | Binding of serum 62 to linear peptides of protein X1 of SARS-CoV Urbani [1] | Binding of serum 62 to looped/cyclic peptides of protein X1 of SARS-CoV Urbani [1] | Binding of serum London to linear peptides of protein X1 of SARS-CoV Urbani [1] | Binding of serum London to looped/cyclic peptides of protein X1 of SARS-CoV Urbani [1] | Binding of Control Serum Blood-Bank to Looped peptides [2] | Binding of Control serum Blood-bank to linear peptides [2] | Binding of Control serum LUMC to linear peptides [2] | Binding of Control serum LUMC to looped peptides [2] | Binding of a rabbit serum to linear peptides [3] | Binding of a rabbit serum to looped peptides [3] | other results
QIHTIDGSSGVANPA | 0.6 | 0.4 | 0.5 | 0.3 | 0.6 | 0.4 | 0.5 | 0.2 | 0.7 | 0.4 | 0.6 | 0.3 | 0.3 | 0.2 | 0.2 | 0.6 | 0.6 | 0.4 | 0.1 | 0.3 | Binding of serum SARS-green to linear peptides of protein X1 of SARS-CoV Urbani [1]: 0.4; Binding of serum SARS-green to looped/cyclic peptides of protein X1 of SARS-CoV Urbani [1]: 0.2; Binding of serum SARS-yellow to linear peptides of protein X1 of SARS-CoV Urbani [1]: 0.3; Binding of serum SARS-yellow to looped/cyclic peptides of protein X1 of SARS-CoV Urbani [1]: 0.1
QIQLSLLKVTAFQHQ | – | – | – | – | – | – | – | – | – | – | – | – | – | – | 0.6 | 0.4 | 0.7 | 0.6 | 0.6 | 0.5 | Binding of serum 1a to linear peptides of protein X2 [1]: 0.5; Binding of serum 1a to looped/cyclic peptides of protein X2 of SARS-CoV Urbani [1]: 0.6; Binding of serum 1b to linear peptides of protein X2 [1]: 0.4; Binding of serum 1b to looped/cyclic peptides of protein X2 of SARS-CoV Urbani [1]: 0.5; Binding of serum 2 to linear peptides of protein X2 [1]: 0.4; Binding of serum 2 to looped/cyclic peptides of protein X2 of SARS-CoV Urbani [1]: 0.4; Binding of serum 6 to linear peptides of protein X2 [1]: 0.4; Binding of serum 6 to looped/cyclic peptides of protein X2 of SARS-CoV Urbani [1]: 0.6; Binding of serum 37 to linear peptides of protein X2 [1]: 0.6; Binding of serum 37 to looped/cyclic peptides of protein X2 of SARS-CoV Urbani [1]: 0.4; Binding of serum 62 to linear peptides of protein X2 [1]: 0.3; Binding of serum 62 to looped/cyclic peptides of protein X2 of SARS-CoV Urbani [1]: 0.6; Binding of serum London to linear peptides of protein X2 [1]: 0.3; Binding of serum London to looped/cyclic peptides of protein X2 of SARS-CoV Urbani [1]: 0.7; Binding of serum SARS-green to linear peptides of protein X2 [1]: 0.2; Binding of serum SARS-green to looped/cyclic peptides of protein X2 of SARS-CoV Urbani [1]: 0.4; Binding of serum SARS-yellow to linear peptides of protein X2 [1]: 0.4; Binding of serum SARS-yellow to looped/cyclic peptides of protein X2 of SARS-CoV Urbani [1]: 0.6
QITTDTGIENATFFI | 0.7 | 0.7 | 0.6 | 0.7 | 0.4 | 0.6 | 0.4 | 0.5 | 0.6 | 1.0 | 0.4 | 0.9 | 0.3 | 0.3 | 0.5 | 0.5 | 0.6 | 0.8 | 0.1 | 1.5 | Binding of serum SARS-green to linear peptides of protein X1 of SARS-CoV Urbani [1]: 0.3; Binding of serum SARS-green to looped/cyclic peptides of protein X1 of SARS-CoV Urbani [1]: 0.5; Binding of serum SARS-yellow to linear peptides of protein X1 of SARS-CoV Urbani [1]: 0.3; Binding of serum SARS-yellow to looped/cyclic peptides of protein X1 of SARS-CoV Urbani [1]: 0.5
QLESTQITTDTGIEN | 0.6 | 0.4 | 0.5 | 0.3 | 0.4 | 0.3 | 0.4 | 0.2 | 0.5 | 0.5 | 0.5 | 0.5 | 0.3 | 0.2 | 0.5 | 0.3 | 0.5 | 0.5 | 0.1 | 0.6 | Binding of serum SARS-green to linear peptides of protein X1 of SARS-CoV Urbani [1]: 0.2; Binding of serum SARS-green to looped/cyclic peptides of protein X1 of SARS-CoV Urbani [1]: 0.4; Binding of serum SARS-yellow to linear peptides of protein X1 of SARS-CoV Urbani [1]: 0.4; Binding of serum SARS-yellow to looped/cyclic peptides of protein X1 of SARS-CoV Urbani [1]: 0.4
